{"source": "patent US5081131A", "about": "“Omega-((hetero)alkyl)benz(cd)-indol-2-amines” (American Cyanamid Company, priority 1988, dated 1992)"}
{"test_system": "spontaneously hypertensive rats", "test": "Hypotensive activity in spontaneously hypertensive rats (MABP)", "format": "in vivo, rat (Okamoto strain)", "conditions": "SHR, gavage, two doses of 10 mg/kg or less 24 h apart, MABP at 28 h; average baseline 160±1.5 mm Hg", "method": "The novel compounds of the present invention are active hypotensive agents and were tested for hypotensive activity by the method of P. S. Chan and D. Poorvin, Clinical and Experimental Hypertension, 1 (6), 817-830 (1979). Male, 16 week old, spontaneously hypertensive rats of the Okamoto strain, from Taconic Farms, Germantown, N.Y., having an average mean arterial blood pressure of 160±1.5 mm of mercury, were used in the test. One to 4 rats were used per test compound. A rat was dosed by gavage with a test compound, suspended in 2% pre-boiled starch at a concentration of 50 mg/ml, at a doses of 10 mg/kg of body weight or less, with 0.9% sodium chloride loading at a dose of 25 ml/kg of body weight. A second identical dose of the test compound, without sodium chloride loading was given 24 hours later. At 28 hours after initial dose the mean arterial blood pressure (MABP) was measured. The procedure was repeated in a second and third rat when necessary.", "units": {"Avg. MABP in mm Hg (No. of Rats)": "mm Hg"}}
{"compound": "O=C(c1cccs1)N(CCCCn1ccnc1)C1=Nc2cccc3cccc1c23", "note": "[N-Benz(cd)indol-2-yl-N-(4-(1H-imidazol-1-yl)butyl)-2-thiophenecarboxamide]", "Avg. MABP in mm Hg (No. of Rats)": 86}
{"compound": "CCC(=O)N(CCCCn1ccnc1)C1=Nc2cccc3cccc1c23", "note": "[N-Benz(cd)indol-2-yl-N-(4-(1H-imidazol-1-yl)butyl)propanamide]", "Avg. MABP in mm Hg (No. of Rats)": 83}
{"compound": "CCCCCCC(=O)N(CCCCn1ccnc1)C1=Nc2cccc3cccc1c23", "note": "[N-Benz(cd)indol-2-yl-N-(4-(1H-imidazol-1-yl)butyl)heptanamide]", "Avg. MABP in mm Hg (No. of Rats)": 76}
{"compound": "O=C(c1cccc(C(F)(F)F)c1)N(CCCCc1cccnc1)C1=Nc2cccc3cccc1c23", "note": "[N-Benz(cd)indol-2-yl-N-(4-(3-pyridinyl)butyl)-3-trifluoromethylbenzamide]", "Avg. MABP in mm Hg (No. of Rats)": 115}
{"compound": "c1cc2c3c(cccc3c1)C(NCCCCn1ccnc1)=N2", "note": "[N-(4-(1H-imidazol-1-yl)butyl)benz(cd)indol-2-amine, hydriodide]", "Avg. MABP in mm Hg (No. of Rats)": 74}
{"compound": "C(=Cc1cccnc1)CCCNC1=Nc2cccc3cccc1c23", "note": "[N-(5-(3-Pyridinyl)-4-pentenyl)benz(cd)indol-2-amine sesqui-fumarate]", "Avg. MABP in mm Hg (No. of Rats)": 140}
{"compound": "Cl.Cl.Clc1cc(Cl)c2cccc3c2c1N=C3NCCCCCCCn1ccnc1", "note": "[6,8-Dichloro-N-(7-(1H-imidazol-1-yl)heptyl)benz(cd)indol-2-amine dihydrochloride]", "Avg. MABP in mm Hg (No. of Rats)": 130}
{"compound": "O=C(Nc1ccccc1)N(CCCn1ccnc1)C1=Nc2cccc3cccc1c23", "note": "[N-Benz(cd)indol-2-yl-N-(3-(1H-imidazol-1-yl)propyl)-N'-phenylurea]", "Avg. MABP in mm Hg (No. of Rats)": 145}
{"compound": "Cl.Cl.c1cc2c3c(cccc3c1)C(NCCCCCCCCCCn1ccnc1)=N2", "note": "[N-(10-(1H-imidazol-1-yl)decyl)benz(cd)indol-2-amine, dihydrochloride]", "Avg. MABP in mm Hg (No. of Rats)": 124}
{"compound": "O=C(c1cccc(C(F)(F)F)c1)N(CCCCn1ccnc1)C1=Nc2cccc3cccc1c23", "note": "[N-Benz(cd)indol-2-yl-N-(4-(1H-imidazol 1-yl)butyl)-3-trifluoromethylbenzamide]", "Avg. MABP in mm Hg (No. of Rats)": 77}
{"compound": "CC(CNC1=Nc2ccc(Br)c3cccc1c23)Cn1ccnc1.Cl.Cl", "note": "(centres unmarked) [6-Bromo-N-(3-(1H-imidazol-1-yl)-2-methylpropyl)benz(cd)indol-2-amine, dihydrochloride]", "Avg. MABP in mm Hg (No. of Rats)": 107}
{"compound": "O=C(O)/C=C/C(=O)O.O=C(O)/C=C/C(=O)O.OC(CNC1=Nc2cccc3cccc1c23)Cn1ccnc1", "note": "(centres unmarked) [N-(3-(1H-imidazol-1-yl)-2-hydroxypropyl)benz(cd)indol-2-amine bis-fumarate]", "Avg. MABP in mm Hg (No. of Rats)": 132}
{"compound": "O=C(c1ccco1)N(CCCCn1ccnc1)C1=Nc2cccc3cccc1c23", "note": "[N-(Benz(cd)indol-2-yl)-N-(4-(1H-imidazol-1-yl)butyl)-2-furancarboxamide]", "Avg. MABP in mm Hg (No. of Rats)": 96}
{"compound": "c1cc2c3c(cccc3c1)C(NOCCCCn1ccnc1)=N2", "note": "[N-(4-(1H-imidazol-1-yl)butoxy)benz(cd)indol-2-amine]", "Avg. MABP in mm Hg (No. of Rats)": 111}
{"compound": "CCCCC(=O)N(CCCCn1ccnc1)C1=Nc2cccc3cccc1c23", "note": "[N-Benz(cd)indol-2-yl-N-(4-(1H-imidazol-1-yl)butyl)pentanamide]", "Avg. MABP in mm Hg (No. of Rats)": 84}
{"compound": "O=C(O)/C=C/C(=O)O.c1cc2c3c(cccc3c1)C(NCCOCCn1ccnc1)=N2", "note": "[N-(2-(2-(1H-imidazol-1-yl)ethoxy)ethyl)benz(cd)indol-2-amine, fumarate]", "Avg. MABP in mm Hg (No. of Rats)": 108}
{"compound": "Cc1ccc(C(=O)N(CCCCn2ccnc2)C2=Nc3cccc4cccc2c34)cc1", "note": "[N-(Benz(cd)indol-2-yl)-N-(4-(1H-imidazol-1-yl)butyl)-4-methylbenzamide]", "Avg. MABP in mm Hg (No. of Rats)": 82}
{"compound": "O=C(O)/C=C/C(=O)O.c1ccc(CSCCNC2=Nc3cccc4cccc2c34)nc1", "note": "[N-(2-((2-pyridinylmethyl)thio)ethyl)benz(cd)indol-2-amine fumarate]", "Avg. MABP in mm Hg (No. of Rats)": 143}
{"compound": "O=C(O)/C=C/C(=O)O.c1cc2c3c(cccc3c1)C(NCCCn1cccn1)=N2", "note": "[N-(3-(1H-Pyrazol-1-yl)propyl)benz(cd)indol-2-amine fumarate]", "Avg. MABP in mm Hg (No. of Rats)": 141}
{"compound": "Cc1csc(CCCNC2=Nc3cccc4cccc2c34)n1.O=C(O)/C=C/C(=O)O", "note": "[N-(3-(4-Methyl-2-thiazolyl)propyl)benz(cd)indol-2-amine fumarate]", "Avg. MABP in mm Hg (No. of Rats)": 122}
{"compound": "CN(CCCn1ccnc1)C1=Nc2cccc3cccc1c23", "note": "[N-(3-1H-imidazol-1-yl)propyl)-N-methylbenz(cd)indol-2-amine]", "Avg. MABP in mm Hg (No. of Rats)": 95}
{"compound": "Clc1ccc(C(Cn2cncn2)NC2=Nc3cccc4cccc2c34)cc1.O=C(O)/C=C/C(=O)O", "note": "(centres unmarked) [N-(1-(4-Chlorophenyl)-2-(1H-1,2,4-triazol-1-yl)ethyl)benz(cd)indol-2-amine fumarate]", "Avg. MABP in mm Hg (No. of Rats)": 142}
{"compound": "Fc1ccc2c3c(cccc13)C(NCCCn1ccnc1)=N2", "note": "[6-Fluoro-N-(3-(1H-imidazol-1-yl)propyl)benz(cd)indol-2-amine]", "Avg. MABP in mm Hg (No. of Rats)": 94}
{"compound": "O=C(c1ccccc1)N(CCCCn1ccnc1)C1=Nc2cccc3cccc1c23", "note": "[N-Benz(cd)indol-2-yl-N-(4-(1H-imidazol-1-yl)butyl)benzamide]", "Avg. MABP in mm Hg (No. of Rats)": 80}
{"compound": "Clc1ccc2c3c(cccc13)C(NCCCn1ccnc1)=N2", "note": "[6-Chloro-N-(3-(1H-imidazol-l-yl)propyl)benz(cd)indol-2-amine]", "Avg. MABP in mm Hg (No. of Rats)": 124}
{"compound": "CC(=O)N(CCCn1ccnc1)C1=Nc2cccc3cccc1c23", "note": "[N-Benz(cd)indol-2-yl-N-(3-(1H-imidazol-1-yl)propyl)acetamide]", "Avg. MABP in mm Hg (No. of Rats)": 102}
{"compound": "CC(CCNC1=Nc2c(Cl)cc(Cl)c3cccc1c23)n1ccnc1.Cl.Cl", "note": "(centres unmarked) [6,8-Dichloro-N-(3-(1H-imidazol-1-yl)butyl)benz(cd)indol-2-amine dihydrochloride]", "Avg. MABP in mm Hg (No. of Rats)": 134}
{"compound": "c1cc2c3c(cccc3c1)C(NCCCCCCCn1ccnc1)=N2", "note": "[N-(7-(1H-imidazol-1-yl)heptyl)benz(cd)indol-2-amine]", "Avg. MABP in mm Hg (No. of Rats)": 127}
{"compound": "CC(=O)N(CCCn1cncn1)C1=Nc2cccc3cccc1c23", "note": "[N-Benz(cd)indol-2-yl-N-(3-(1H-1,2,4-triazol-1-yl)propyl)acetamide]", "Avg. MABP in mm Hg (No. of Rats)": 118}
{"compound": "CCC(CC)(CNC1=Nc2cccc3cccc1c23)Cn1ccnc1", "note": "[N-(2-Ethyl-2-(1H-imidazol-1-yl)methyl)butylbenz(cd)indol-2-amine sesqui-fumarate]", "Avg. MABP in mm Hg (No. of Rats)": 112}
{"compound": "CC(CNC1=Nc2c(Cl)cc(Cl)c3cccc1c23)Cn1ccnc1", "note": "(centres unmarked) [6,8-Dichloro-N-(3-(1H-imidazol-1-yl)-2-methylpropyl)benz(cd)indol-2-amine sesqui-furamate]", "Avg. MABP in mm Hg (No. of Rats)": 116}
{"compound": "Cc1cn(CCCNC2=Nc3cccc4cccc2c34)cn1.Cl.Cl", "note": "[N-(3-(4-methyl-1H-imidazol-1-yl)propyl)benz(cd)indol-2-amine, dihydrochloride]", "Avg. MABP in mm Hg (No. of Rats)": 106}
{"compound": "C[N+]1=C(NCCCCn2cc[n+](C)c2)c2cccc3cccc1c23.[I-].[I-]", "note": "[N-(4-(1H-imidazol-1-yl)butyl)benz(cd)indol-2-amine dimethiodide]", "Avg. MABP in mm Hg (No. of Rats)": 110}
{"compound": "O=C(O)/C=C/C(=O)O.O=C(O)/C=C/C(=O)O.c1cc2c3c(cccc3c1)C(NCCCn1ccnc1)=N2", "note": "[N-(3-(1H-imidazol-1-yl)propyl)benz(cd)indol-2-amine, bis-fumarate]", "Avg. MABP in mm Hg (No. of Rats)": 81}
{"compound": "O=C(c1ccc(F)cc1)N(CCCCn1ccnc1)C1=Nc2cccc3cccc1c23", "note": "[N-Benz(cd)indol-2-yl-N-(4-(1H-imidazol-1-yl)butyl)-4-fluorobenzamide]", "Avg. MABP in mm Hg (No. of Rats)": 85}
{"compound": "O=C(c1ccc(Cl)c(Cl)c1)N(CCCCn1ccnc1)C1=Nc2cccc3cccc1c23", "note": "[N-Benz(cd)indol-2-yl-3,4-dichloro-N-(4-(1H-imidazol-1-yl)butyl)benzamide]", "Avg. MABP in mm Hg (No. of Rats)": 96}
{"compound": "C(=C/Cn1ccnc1)/CNC1=Nc2cccc3cccc1c23.O=C(O)/C=C/C(=O)O", "note": "[(Z)-N-(4-(1H-imidazol-1-yl)-2-butenyl)benz(cd)indol-2-amine, fumarate]", "Avg. MABP in mm Hg (No. of Rats)": 102}
{"compound": "CCCCCC(=O)N(CCCCn1ccnc1)C1=Nc2cccc3cccc1c23", "note": "[N-Benz(cd)indol-2-yl-N-(4-(1H-imidazol-1-yl)butyl)hexanamide]", "Avg. MABP in mm Hg (No. of Rats)": 102}
{"compound": "O=C(c1ccccc1Cl)N(CCCCn1ccnc1)C1=Nc2cccc3cccc1c23", "note": "[N-Benz(cd)indol-2-yl-2-chloro-N-(4-(1-imidazol-1-yl)butyl)benzamide]", "Avg. MABP in mm Hg (No. of Rats)": 80}
{"compound": "c1cncc(CCCCNC2=Nc3cccc4cccc2c34)c1", "note": "[N-(4-(3-Pyridinyl)butyl)benz(cd)indol-2-amine sesqui-fumarate]", "Avg. MABP in mm Hg (No. of Rats)": 95}
{"compound": "O=C(O)/C=C/C(=O)O.c1cc2c3c(cccc3c1)C(NCCn1ccnc1)=N2", "note": "[N-(2-(1H-imidazol-1-yl)ethyl)benz(cd)indol-2-amine, fumarate]", "Avg. MABP in mm Hg (No. of Rats)": 97}
